Values after ≈ are worked out from the molar mass of the structure shown.
Tests used:
[1] = target: BRAF serine–threonine kinase; set-up: method as in PMID 22646766; details: cited from earlier work
[2] = tested on: hepatocellular carcinoma HepG2 cells; set-up: method as in PMID 32545423; details: cited from earlier work
[3] = target: T1, neutrophil elastase (Sus scrofa, UniProt P00772); assay: Elastase assay (SANA substrate); assay type: biochemical, porcine; details: Tris-HCl pH 8.0, SANA substrate; read-out: neutrophil elastase inhibition IC50 (converted)
T1 construct: purchased Sigma Chemical Co. (St. Louis, MO, USA)
Protocol: The elastase analysis was performed according to the spectrophotometric method with oleanolic acid as a reference. The reaction mixture (Tris-HCl buffer (pH 8.0), 1.0 μg/mL porcine pancreatic elastase, and different concentrations of chalcone derivatives was preincubated at room temperature for 15 min. Afterwards, the addition of the substrate—SANA—started the reaction. Product formation changes were analyzed at λ = 410 nm for 20 min every 20 s (Epoch, BioTek Instruments, Santa Clara, CA, USA). The control was composed of Tris-HCl buffer (pH 8.0), an appropriate concentration of the chalcone derivative, and SANA.

[4] = tested on: cervical cancer HeLa; assay: MTT assay, HeLa cells; assay type: cell-based, human; details: for IC50: Homo sapiens, HeLa, MTT, 24 h treatment; for selectivity index HeLa: SI = IC50 noncancer cells/IC50 cancer cells, in relation to human neonatal fibroblasts
Protocol: (§1) The human gastric adenocarcinoma AGS, cervical cancer HeLa, and acute promyelocytic leukemia HL-60 cells were obtained from the American Type Culture Collection (ATCC, Manassas, VA, USA). Human neonatal fibroblasts were obtained from LGC Standards (Luckenwalde, Germany). The HeLa and AGS lines were cultured in Dulbecco’s modified Eagle’s medium (DMEM) and DMEM/F12 medium, respectively. The HL-60 line was maintained in RPMI-1640 medium. Fibroblasts were cultured in Fibroblast Growth Medium with Supplement Mix. All the media were supplemented with 100 units/mL of penicillin, 100 µg/mL of streptomycin, and 10% (v/v) fetal bovine serum (FBS) (Merck Millipore, Burlington, MA, USA). The cells were incubated at 37 °C and 5% CO2.
(§2) To estimate the cytotoxic effect of the five compounds (4–8), MTT (3-(4,5-dimethylthiazol-2-yl)-2,5-diphenyltetrazolium bromide) assay was used. Oxaliplatin was used as a positive control in this test. All the cell lines were seeded in 96-well plates at a density of 5 × 10^3 cells/well and treated for 24 h with the compounds at concentrations of 0.5–40 µg/mL. Oxaliplatin was tested in the range of 20–400 µg/mL (50–1000 µM). After treatment, the cells were incubated with MTT (0.5 mg/mL; Merck Millipore, Burlington, MA, USA) for 3 h. Then, DMSO was used to dissolve formazan crystals, and the absorbance of the formazan solution was measured with a plate reader (Epoch, BioTek Instruments, Santa Clara, CA, USA). All the results (±standard deviation (SD)) were obtained from six repetitions in at least two independent experiments. The data are expressed as IC50 values (µg/mL).

[5] = DPPH radical scavenging assay; details: for % of DPPH radical inhibition: concentration of 800 µg/mL
Protocol: The DPPH radical scavenging assay of samples (ligands or complexes) was performed with ascorbic acid as a standard. Different concentrations of chalcone derivatives, dissolved in DMSO, were mixed with the same amount of 0.06 mM DPPH methanolic solution and incubated at room temperature in the dark for 30 min. The absorbance was analyzed at λ = 517 nm using a 96-well microplate reader (Epoch, BioTek System, Winooski, VT, USA). The control was composed of DPPH and DMSO. DPPH inhibition was calculated according to the following Formula (2):DPPH Inhibition (%) = [(Acontrol − Asample)/Acontrol] × 100%(2)

[6] = tested on: acute promyelocytic leukemia HL-60; assay: MTT assay, HL-60 cells; assay type: cell-based, human; details: for IC50: Homo sapiens, HL-60, 24 h, MTT, 24 h treatment; for selectivity index HL-60: SI = IC50 noncancer cells/IC50 cancer cells, in relation to human neonatal fibroblasts
Protocol: as §1, §2

[7] = tested on: cancer cells (HeLa, HL-60, AGS); assay: MTT assay, cancer cells taken together; assay type: cell-based, human; details: HL-60 and AGS together
Protocol: as §1, §2

[8] = tested on: human neonatal fibroblasts; assay: MTT assay, noncancerous fibroblasts; assay type: cell-based; details: Homo sapiens, Fibroblast, 24 h treatment
Protocol: as §1, §2

[9] = β-Carotene bleaching test; details: for protection of lipids oxidation / reduction of lipid peroxidation (in words): compared to ascorbic acid
Protocol: β-Carotene bleaching test was based on the method described by Olszowy et al. with some modifications. First, 1 mg of β-carotene was dissolved in 5 mL of chloroform. Afterwards, […] of linoleic acid and 200 mg of Tween 40 were added. The chloroform was evaporated, and 50 mL of oxygenized water was added. The created emulsion was mixed with different concentrations of chalcone derivatives. β-carotene bleaching was analyzed at λ = 492 nm before (t = 0 min) and after 90 min (t = 90 min) of incubation at 50 °C (Epoch, BioTek Instruments, Santa Clara, CA, USA). Ascorbic acid was used as a standard. The control was composed of emulsion and DMSO.
The results were calculated according to the following Formula (4):[(AsampleT0 − AsampleT90)/(AcontrolT0 − AcontrolT90) × 100%(4)

[10] = tested on: gastric adenocarcinoma AGS; assay: MTT assay, AGS cells; assay type: cell-based, human; details: for IC50: Homo sapiens, AGS, 24 h, MTT, 24 h treatment; for selectivity index AGS: SI = IC50 noncancer cells/IC50 cancer cells, in relation to human neonatal fibroblasts
Protocol: as §1, §2

[11] = tested on: Campylobacter coli ZMF; assay: MIC determination; assay type: cell-based; details: 37 °C, 48 h
Protocol: (§3) The MIC determinations for Staphylococcus epidermidis ATCC14990, Staphylococcus aureus ATCC6538, Enterococcus faecalis ATCC51299, Klebsiella pneumoniae ATCC13883, Escherichia coli ATCC8739, Salmonella enterica ATCC13076, Helicobacter pylori ATCC43504, Campylobacter jejuni ZMF, Campylobacter coli ZMF, Bacillus cereus PCM 1948,2019 (ATCC11778), and Listeria monocytogenes PCM2191 were performed based on the methodology described by Krauze-Baranowska et al.. The procedure for H. pylori was used in the experiments with Campylobacter strains, and the procedure for B. subtilis was used in the experiments with L. monocytogenes and B. cereus. The tested samples were dissolved in DMSO and diluted with water (concentration of approximately 500 μg/mL). The solutions were diluted geometrically by transferring the mixture/dilution (100 μL) from the first to the twelfth well of the microtiter plate. The final concentrations of samples used for antimicrobial effects ranged from 500 to 0.006 µg/mL. Ampicillin was used as a reference compound in the concentration range of 128 to 0.0625 µg/mL. The tests were incubated at 37 °C for 48 h. The diluent concentration had no effect on the activity of the tested compounds. All experiments were performed in triplicate.

[12] = tested on: Helicobacter pylori ATCC43504; assay: MIC determination; assay type: cell-based; details: 37 °C, 48 h
Protocol: as §3

[13] = tested on: Enterococcus faecalis ATCC51299; assay: MIC determination; assay type: cell-based; details: 37 °C, 48 h
Protocol: as §3

[14] = tested on: Bacillus cereus PCM 1948,2019 (ATCC11778); assay: MIC determination; assay type: cell-based; details: 37 °C, 48 h
Protocol: as §3

[15] = tested on: Salmonella enterica ATCC13076; assay: MIC determination; assay type: cell-based; details: 37 °C, 48 h
Protocol: as §3

[16] = tested on: Campylobacter jejuni ZMF; assay: MIC determination; assay type: cell-based; details: 37 °C, 48 h
Protocol: as §3

[17] = tested on: Staphylococcus aureus ATCC6538; assay: MIC determination; assay type: cell-based; details: 37 °C, 48 h
Protocol: as §3

[18] = tested on: Staphylococcus epidermidis ATCC14990; assay: MIC determination; assay type: cell-based; details: 37 °C, 48 h
Protocol: as §3

[19] = tested on: Klebsiella pneumoniae ATCC13883; assay: MIC determination; assay type: cell-based; details: 37 °C, 48 h
Protocol: as §3

[20] = tested on: Listeria monocytogenes PCM2191; assay: MIC determination; assay type: cell-based; details: 37 °C, 48 h
Protocol: as §3

[21] = tested on: Escherichia coli ATCC8739; assay: MIC determination; assay type: cell-based; details: 37 °C, 48 h
Protocol: as §3

[22] = tested on: K-562 cells; details: 10 µM; cited from earlier work
[23] = tested on: colon cancer cells (HTC-116); set-up: method as in PMID 12556221; details: preclinical tests; cited from earlier work
[24] = ABTS radical scavenging assay
Protocol: The ABTS radical scavenging assay of chalcone derivatives was performed with ascorbic acid as a standard. Different concentrations of samples, dissolved in DMSO, were mixed with 170 μL of ABTS solution (2 mM ABTS diammonium salt and 3.5 mM potassium persulfate), and water was added to a final volume of 300 μL. ABTS solution with DMSO was used as a control. […] ABTS inhibition was calculated according to the following Formula (3):ABTS Inhibition (%) = [(Acontrol − Asample)/Acontrol] × 100%(3)

[25] = tested on: MCF-7 breast; set-up: method as in PMID 29223717; details: cited from earlier work
[26] = tested on: 143B osteosarcoma; set-up: method as in PMID 29223717; details: cited from earlier work
[27] = tested on: HCT-116 colon; set-up: method as in PMID 29223717; details: cited from earlier work

T1 sequence (P00772 27-266): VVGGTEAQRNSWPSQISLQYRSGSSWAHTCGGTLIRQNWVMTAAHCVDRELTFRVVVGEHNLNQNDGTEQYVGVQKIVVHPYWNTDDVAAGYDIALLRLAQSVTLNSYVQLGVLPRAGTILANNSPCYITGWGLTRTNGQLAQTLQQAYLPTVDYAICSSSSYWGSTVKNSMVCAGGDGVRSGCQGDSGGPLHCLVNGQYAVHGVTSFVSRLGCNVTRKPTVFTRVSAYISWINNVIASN

CCCS(=O)(=O)Nc1ccc(F)c(C(=O)c2c[nH]c3ncc(-c4ccc(Cl)cc4)cc23)c1F [vemurafenib]
IC50 [1]: 31 nM

COc1cc(O)cc(O)c1C(=O)/C=C/c1ccccc1 [cardamonin]
IC50 [2]: 17100 ± 592 nM

Cc1ccc(/C=C/C(=O)c2ccc(NS(=O)(=O)c3cc(C)c(Cl)cc3Cl)cc2)cc1 [Compound 8, (E)-2,4-Dichloro-5-Methyl-N-{4-[3-(p-Tolyl)acryloyl]phenyl}benzenesulfonamide]
IC50 [3]: 55900 nM | IC50 [4]: 7.96 ± 0.37 µg/mL (≈ 17.3 µM) | selectivity index HeLa [4]: 3.50 | % of DPPH radical inhibition [5]: 0.32 ± 0.03% | IC50 [6]: 2.9 ± 0.17 µg/mL (≈ 6.3 µM) | selectivity index HL-60 [6]: 9.58 | IC50 toward cancer cells [7]: weaker activity | IC50 [8]: 27.8 ± 2.82 µg/mL (≈ 60.4 µM) | protection of lipids oxidation / reduction of lipid peroxidation (in words) [9]: weaker properties | IC50 [10]: 3.6 ± 0.33 µg/mL (≈ 7.82 µM) | selectivity index AGS [10]: 7.72 | MIC [11]: > 500 µg/mL | MIC [12]: > 500 µg/mL | MIC [13]: > 500 µg/mL | MIC [14]: > 500 µg/mL | MIC [15]: > 500 µg/mL | MIC [16]: > 500 µg/mL | MIC [17]: > 500 µg/mL | MIC [18]: > 500 µg/mL | MIC [19]: > 500 µg/mL | MIC [20]: > 500 µg/mL | MIC [21]: > 500 µg/mL

methoxytolylacryloylbenzenesulfonamide
viability of leukemia cells [22]: less than 10%

Cc1cc(S(=O)(=O)Nc2ccc(C(=O)/C=C/c3ccccc3)cc2)c(Cl)cc1Cl [Compound 4, (E)-2,4-Dichloro-N-(4-Cinnamoylphenyl)-5-Methylbenzenesulfonamide]
IC50 [3]: 119000 nM | IC50 [4]: 9.63 ± 0.06 µg/mL (≈ 21.6 µM) | selectivity index HeLa [4]: 3.34 | % of DPPH radical inhibition [5]: 19.49 ± 0.38% | IC50 [6]: 2.37 ± 0.23 µg/mL (≈ 5.31 µM) | selectivity index HL-60 [6]: 13.57 | IC50 toward cancer cells [7]: weaker activity | IC50 [8]: 32.1 ± 2.91 µg/mL (≈ 72 µM) | protection of lipids oxidation / reduction of lipid peroxidation (in words) [9]: weaker properties | IC50 [10]: 1.23 ± 0.23 µg/mL (≈ 2.76 µM) | selectivity index AGS [10]: 26.14 | MIC [11]: > 500 µg/mL | MIC [12]: > 500 µg/mL | MIC [13]: > 500 µg/mL | MIC [14]: > 500 µg/mL | MIC [15]: > 500 µg/mL | MIC [16]: > 500 µg/mL | MIC [17]: > 500 µg/mL | MIC [18]: > 500 µg/mL | MIC [19]: > 500 µg/mL | MIC [20]: > 500 µg/mL | MIC [21]: > 500 µg/mL

COc1ccc(C(=O)C=Cc2ccccc2)cc1S(N)(=O)=O [5-cinnamoyl-2-methoxybenzenesulfonamide]
viability of leukemia cells [22]: less than 10%

NS(=O)(=O)c1ccc(S(=O)(=O)Nc2cccc3c(Cl)c[nH]c23)cc1 [Indisulam]
IC50 colon cancer cells (HTC-116) [23]: 0.11 µg/mL (≈ 0.285 µM)

O=C1O[C@H]([C@@H](O)CO)C(O)=C1O [ascorbic acid, reference compound]
DPPH IC50 [5]: 12.75 ± 0.25 µg/mL | % of DPPH radical inhibition [5]: 100% | β-carotene bleaching IC50 ([9]; 90 min at 50 °C): 15.6 ± 0.65 µg/mL | ABTS IC50 [24]: 20.43 ± 0.79 µg/mL | % of ABTS radical inhibition ([24]; concentration of 800 µg/mL): 100%

Cc1cccc(S(=O)(=O)Nc2cccc(/C=C/C(=O)c3nc4ccccc4[nH]3)c2)c1 [(E)-N-{3-[3-(1H-benzo[d]imidazol-2-yl)-3-oxoprop-1-en-1-yl]phenyl}-3-methylbenzenesulfonamide]
IC50 [25]: 890 nM | IC50 [26]: 790 nM | IC50 [27]: 600 nM
